Here are results for 20 compounds from US20090062253A1, “HETEROCYCLODIAZEPINE CANNABINOID RECEPTOR MODULATORS FOR TREATMENT OF DISEASE” (KALYPSYS, INC., priority 2007, published 2009).

The structures appear in SMILES notation.

One assay addresses T1, Human CB2 (Homo sapiens, UniProt P34972).
T1 construct: expressed in transfected cells; membrane preparation
The experiment in a line: Human CB2 Radioligand Binding Assay. Particulars: membranes from stably transfected CHO CB2 cells; competition with [3H] CP-55,940; read-out: CB2 Ligand Binding Asssay. As for the experimental part:
(§1) This receptor binding filtration assay measures the receptor-ligand interactions of compounds by measuring ability to compete with a radiolabeled control ligand. Reactions were performed in 96 deep-well plate (Costar 3961) with a final volume of 600 ul. Compounds were added to each well either in single point (10 uM final) or dose-response. Compounds were delivered in DMSO or further diluted in incubation buffer to a final assay DMSO concentration of 1%. Incubation buffer (50 mM Tris-HCl pH 7.4, 2.5 mM EGTA, 5 mM MgCl2, 5.0 mg/ml fatty acid free BSA) was added to each well. Following buffer addition, [^3H] CP-55,940 was added. Tritiated CP-55,940 (Perkin Elmer) was used at the Kd determined from prior saturation binding experiments conducted on each lot of membranes. Membrane preparations from stably transfected CHO CB2 cells were added and the reaction was incubated for 90 minutes at 30° C. Unifilter GF/C filtration plates (Perkin Elmer) were pre-wet with 0.05% polyethylenimine. Samples were transferred to Unifilter plates and separation of unbound radioligand was achieved using a vacuum manifold (Millipore). Following thorough washing with 5 ml/well ice-cold wash buffer (50 mM Tris-HCl pH 7.4, 2.5 mM EGTA, 5 mM MgCl2, 0.5 mg/ml fatty acid free BSA), filterplates were dried completely. Betaplate Scint Scintillation cocktail (25 ul, Perkin Elmer) was applied and plates were read using Microbeta Trilux (Wallac). Data analysis was performed in Spotfire. Activity of the positive control (100 nM CP-55,940) was set as 100% efficacy.
Stable recombinant Human CB2-CHO cell membranes were prepared as follows: Chinese Hamster Ovarian (CHO) cells stably expressing human cannabinoid receptor type 2 were grown to ˜90% confluence in 15×100 mm culture dishes under puromycin selection (5 ug/ml) Cells were harvested from culture flasks using a cell scraper, were washed once with cold phosphate-buffered saline (calcium and magnesium free) and pelleted by centrifugation at 400 g for 5 min at 4° C. Cell pellet was washed once with cold phosphate-buffered saline and centrifuged again at 400×g for 5 min at 4° C. The pellet was suspended in ice-cold lysis buffer (10 mM Tris-HCl, 0.1 mM EDTA, containing […], pH 7.5) and homogenized in a chilled 7 ml glass dounce homogenizer using 50 strokes. The homogenate was centrifuged at 400 g for 15 min at 4° C. The cloudy supernatant was collected and centrifuged at 41000 g for 30 min at 4° C. The resulting pellet was washed with ice-cold sucrose-free lysis buffer and centrifuged again at 41000 g for 30 min at 4° C. The membrane pellet was suspended in sucrose-free storage buffer (10 mm Tris-HCl, 0.1 mM EDTA, pH 7.5) to a concentration of 2-3 mg protein/ml. Aliquots were flash frozen in liquid nitrogen and stored at −80° C. Concentration was determined using Dc protein assay kit (Bio-Rad).

The target in assay [1] is T2, human cannabinoid receptor type 1 (Homo sapiens, UniProt P21554).
T2 construct: purchased Perkin Elmer RBHCB1M; host or cells: HEK 293 EBNA cells
The experiment in a line: Human CB1 Radioligand Binding Assay (basis of selectivity CB2 vs. CB1). As for the experimental part: as §1
The CB1 binding assay was performed as described above except that HEK 293 EBNA cells expressing human cannabinoid receptor type 1 (Perkin Elmer cat #RBHCB1M) were used according the manufacturer's instructions. The incubation buffer was composed of 50 mM Tris-HCl pH 7.4, 2.5 mM EDTA, 5 mM MgCl2, 5.0 mg/ml fatty acid free BSA and the wash buffer was composed of 50 mM Tris-HCl pH 7.4, 2.5 mM EDTA, 5 mM MgCl2, 0.5 mg/ml fatty acid free BSA. Activity of the positive control (100 nM CP-55,940) was set as 100% efficacy.

T2 sequence (P21554 whole entry): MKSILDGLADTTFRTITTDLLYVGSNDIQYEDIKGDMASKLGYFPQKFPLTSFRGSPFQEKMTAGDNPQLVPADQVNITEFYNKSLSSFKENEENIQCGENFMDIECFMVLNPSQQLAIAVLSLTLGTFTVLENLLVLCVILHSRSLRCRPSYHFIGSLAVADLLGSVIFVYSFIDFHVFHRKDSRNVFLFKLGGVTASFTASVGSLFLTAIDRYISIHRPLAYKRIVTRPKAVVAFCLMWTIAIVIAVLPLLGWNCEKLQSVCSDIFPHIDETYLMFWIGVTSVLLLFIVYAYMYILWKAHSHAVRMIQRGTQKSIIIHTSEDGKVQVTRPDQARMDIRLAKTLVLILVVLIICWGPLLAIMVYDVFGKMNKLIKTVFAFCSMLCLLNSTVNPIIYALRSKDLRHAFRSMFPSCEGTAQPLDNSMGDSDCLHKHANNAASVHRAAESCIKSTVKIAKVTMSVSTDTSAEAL
T1 sequence (P34972 whole entry): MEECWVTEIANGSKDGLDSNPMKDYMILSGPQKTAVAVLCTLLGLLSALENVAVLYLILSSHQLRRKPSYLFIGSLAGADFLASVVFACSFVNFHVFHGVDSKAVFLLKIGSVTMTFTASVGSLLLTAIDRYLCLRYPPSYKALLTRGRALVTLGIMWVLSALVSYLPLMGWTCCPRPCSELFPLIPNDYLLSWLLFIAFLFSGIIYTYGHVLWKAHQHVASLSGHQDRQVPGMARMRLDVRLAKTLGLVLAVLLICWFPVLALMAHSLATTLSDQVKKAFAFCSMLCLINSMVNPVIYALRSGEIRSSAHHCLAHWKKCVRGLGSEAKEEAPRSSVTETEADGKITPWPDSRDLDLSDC

For the compound `O=C(Nc1ccc(F)cc1F)[C@H]1CCCn2cccc2[C@@H]1c1ccccc1` (relative stereo) [Example 105, (8,9-trans)-N-(2,4-Difluorophenyl)-9-phenyl-6,7,8,9-tetrahydro-5H-pyrrolo[1,2-a]azepine-8-carboxamide], at Human CB2, the IC50 (radioligand displacement) was more than 1000 nM. Also, the “Selectivity, CB2 vs. CB1” value in assay [1] was “− (− indicates < 10-fold)”.
The corresponding values for `O=C(Nc1ccc(F)c(F)c1)[C@H]1CCCn2cccc2[C@@H]1c1ccccc1` (relative stereo) [Example 107, (8,9-trans)-N-(3,4-Difluorophenyl)-9-phenyl-6,7,8,9-tetrahydro-5H-pyrrolo[1,2-a]azepine-8-carboxamide] are more than 1000 nM and “− (− indicates < 10-fold)”.
Take `O=C(Nc1ccc(Cl)cc1)[C@H]1CCCn2cccc2[C@@H]1c1ccccc1` (relative stereo) [Example 109, (8,9-trans)-N-(4-Chlorophenyl)-9-phenyl-6,7,8,9-tetrahydro-5H-pyrrolo[1,2-a]azepine-8-carboxamide]: at Human CB2, the IC50 (radioligand displacement) is more than 1000 nM. Moreover, in assay [1], the “Selectivity, CB2 vs. CB1” value is given as “− (− indicates < 10-fold)”.
With `O=C(Nc1ccc(Cl)cc1)[C@H]1CCCn2cccc2[C@H]1c1ccccc1` (relative stereo) [Example 110, (8,9-cis)-N-(4-Chlorophenyl)-9-phenyl-6,7,8,9-tetrahydro-5H-pyrrolo[1,2-a]azepine-8-carboxamide], the IC50 (radioligand displacement) on Human CB2 is less than 1000 nM. For the same compound, the “Selectivity, CB2 vs. CB1” value in assay [1] is given as “− (− indicates < 10-fold)”.
Turning to `O=C(Nc1ccc(C(F)(F)F)cc1)[C@H]1CCCn2cccc2[C@@H]1c1ccccc1` (relative stereo) [Example 111, (8,9-trans)-9-Phenyl-N-(4-(trifluoromethyl)phenyl)-6,7,8,9-tetrahydro-5H-pyrrolo[1,2-a]azepine-8-carboxamide], on Human CB2, the IC50 (radioligand displacement) is more than 1000 nM. Further, the “Selectivity, CB2 vs. CB1” value in assay [1] was “− (− indicates < 10-fold)”.
`O=C(Nc1ccc(OC(F)(F)F)cc1)[C@H]1CCCn2cccc2[C@H]1c1ccccc1` (relative stereo) [Example 114, (8,9-cis)-9-Phenyl-N-(4-(trifluoromethoxy)phenyl)-6,7,8,9-tetrahydro-5H-pyrrolo[1,2-a]azepine-8-carboxamide]: the IC50 (radioligand displacement) at Human CB2 was less than 1000 nM. Besides, in assay [1], the “Selectivity, CB2 vs. CB1” value is “− (− indicates < 10-fold)”.
In the case of `O=C(Nc1ccc(F)cc1F)C1CCCn2cccc2C1c1ccccc1` (single isomer, unassigned) [Example 106, (8,9-cis)-N-(2,4-Difluorophenyl)-9-phenyl-6,7,8,9-tetrahydro-5H-pyrrolo[1,2-a]azepine-8-carboxamide], the IC50 (radioligand displacement) on Human CB2 is less than 1000 nM. The “Selectivity, CB2 vs. CB1” value in assay [1] is “+ (+ indicates > 10-fold)”.
The corresponding values for `O=C(Nc1ccc(F)c(F)c1)C1CCCn2cccc2C1c1ccccc1` (single isomer, unassigned) [Example 108, (8,9-cis)-N-(3,4-Difluorophenyl)-9-phenyl-6,7,8,9-tetrahydro-5H-pyrrolo[1,2-a]azepine-8-carboxamide] are more than 1000 nM and “− (− indicates < 10-fold)”.
Turning to `O=C(Nc1ccc(OC(F)(F)F)cc1)C1CCCn2cccc2C1c1ccccc1` (single isomer, unassigned) [Example 113, (8,9-trans)-9-Phenyl-N-(4-(trifluoromethoxy)phenyl)-6,7,8,9-tetrahydro-5H-pyrrolo[1,2-a]azepine-8-carboxamide], the IC50 (radioligand displacement) on Human CB2 was more than 1000 nM. Also, the “Selectivity, CB2 vs. CB1” value in assay [1] was “− (− indicates < 10-fold)”.
As for `CC(C)(C)c1ccc(C2c3cccn3CCCC2NC(=O)Nc2ccc(Cl)cc2Cl)cc1` (single isomer, unassigned) [Example 118, 1-(9-(4-tert-Butylphenyl)-6,7,8,9-tetrahydro-5H-pyrrolo[1,2-a]azepin-8-yl)-3-(2,4-dichlorophenyl)urea], the IC50 (radioligand displacement) at Human CB2 is less than 1000 nM. Moreover, in assay [1], the “Selectivity, CB2 vs. CB1” value is “− (− indicates < 10-fold)”.
On to `CC(C)(C)c1ccc(C2c3cccn3CCCC2NC(=O)Nc2ccc(Cl)cc2Cl)cc1` (single isomer, unassigned) [Example 119, 1-(9-(4-tert-Butylphenyl)-6,7,8,9-tetrahydro-5H-pyrrolo[1,2-a]azepin-8-yl)-3-(2,4-dichlorophenyl)urea], for which, at Human CB2, the IC50 (radioligand displacement) was more than 1000 nM. Also, the “Selectivity, CB2 vs. CB1” value in assay [1] is reported as “− (− indicates < 10-fold)”.
As for `CC(C)(C)c1ccc(C2c3cccn3CCCC2NC(=O)Nc2ccc(Cl)c(Cl)c2)cc1` (single isomer, unassigned) [Example 120, 1-(9-(4-tert-Butylphenyl)-6,7,8,9-tetrahydro-5H-pyrrolo[1,2-a]azepin-8-yl)-3-(3,4-dichlorophenyl)urea], at Human CB2, the IC50 (radioligand displacement) is more than 1000 nM. Besides, the “Selectivity, CB2 vs. CB1” value in assay [1] is “− (− indicates < 10-fold)”.
The corresponding values for `CC(C)(C)c1ccc(C2c3cccn3CCCC2NC(=O)Nc2ccc(Cl)c(Cl)c2)cc1` (single isomer, unassigned) [Example 121, 1-(9-(4-tert-Butylphenyl)-6,7,8,9-tetrahydro-5H-pyrrolo[1,2-a]azepin-8-yl)-3-(3,4-dichlorophenyl)urea] are more than 1000 nM and “− (− indicates < 10-fold)”.
On to `CC(C)(C)c1ccc(C2NCCn3cccc32)cc1` (stereo not shown) [Example 1, 1-(4-tert-Butylphenyl)-1,2,3,4-tetrahydropyrrolo[1,2-a]pyrazine], for which the IC50 (radioligand displacement) on Human CB2 is more than 1000 nM. Besides, in assay [1], the “Selectivity, CB2 vs. CB1” value was “− (− indicates < 10-fold)”.
The corresponding values for `CC(C)(C)c1ccc(C2c3cccn3CCN2C(=O)Nc2ccc(F)cc2F)cc1` (stereo not shown) [Example 2, 1-(4-tert-Butylphenyl)-N-(2,4-difluorophenyl)-3,4-dihydropyrrolo[1,2-a]pyrazine-2(1H)-carboxamide] are less than 1000 nM and “+ (+ indicates > 10-fold)”.
The corresponding values for `O=C(Nc1ccc(F)cc1F)N1CCn2cccc2C1c1ccccc1` (stereo not shown) [Example 5, N-(2,4-Difluorophenyl)-1-phenyl-3,4-dihydropyrrolo[1,2-a]pyrazine-2(1H)-carboxamide] are more than 1000 nM and “+ (+ indicates > 10-fold)”.
With `CC(C)(C)c1ccc(C2c3cccn3CCCN2C(=O)Nc2ccc(F)cc2F)cc1` (stereo not shown) [Example 7, 1-(4-tert-Butylphenyl)-N-(2,4-difluorophenyl)-4,5-dihydro-1H-pyrrolo[1,2-a][1,4]diazepine-2(3H)-carboxamide], the IC50 (radioligand displacement) at Human CB2 was less than 1000 nM. For the same compound, the “Selectivity, CB2 vs. CB1” value in assay [1] is “+ (+ indicates > 10-fold)”.
For `Cc1ccc(C2c3cccn3CCCN2C(=O)Nc2ccc(F)cc2F)cc1` (stereo not shown) [Example 8, N-(2,4-Difluorophenyl)-1-p-tolyl-4,5-dihydro-1H-pyrrolo[1,2-a][1,4]diazepine-2(3H)-carboxamide], the IC50 (radioligand displacement) on Human CB2 was less than 1000 nM. Besides, the “Selectivity, CB2 vs. CB1” value in assay [1] was “− (− indicates < 10-fold)”.
Consider `Cc1cccc(C2c3cccn3CCCN2C(=O)Nc2ccc(F)cc2F)c1` (stereo not shown) [Example 10, N-(2,4-Difluorophenyl)-1-m-tolyl-4,5-dihydro-1H-pyrrolo[1,2-a][1,4]diazepine-2(3H)-carboxamide], for which, at Human CB2, the IC50 (radioligand displacement) is more than 1000 nM. The “Selectivity, CB2 vs. CB1” value in assay [1] is listed as “− (− indicates < 10-fold)”.
On to `Cc1cccc(C2c3cccn3CCCN2C(=O)Nc2ccc(Cl)cc2Cl)c1` (stereo not shown) [Example 11, N-(2,4-Dichlorophenyl)-1-m-tolyl-4,5-dihydro-1H-pyrrolo[1,2-a][1,4]diazepine-2(3H)-carboxamide], for which the IC50 (radioligand displacement) on Human CB2 was more than 1000 nM. Moreover, the “Selectivity, CB2 vs. CB1” value in assay [1] is on record as “− (− indicates < 10-fold)”.
